How the values were obtained:
InsR = biological target: T1, InsR (Homo sapiens, UniProt P06213); experiment: Tyrosine kinase assay (Kinase-Glo or AlphaScreen), InsR; settings: biochemical tyrosine kinase assay
T1 construct: 6×His- or GST-tagged kinase domain fragments of the corresponding RTKs expressed in baculovirus system; host or cells: baculovirus system
Procedure: (§1) To determine inhibition of several tyrosine kinases, such as IGF1R, InsR, Alk, TrkA and Jak2, kinase assays are conducted using either Kinase-Glo (Promega) or AlphaScreen (PerkinElmer) kinase assay platforms. The Kinase-Glo Luminescent Kinase Assay is a homogeneous method for measuring kinase activity by determining the amount of ATP remaining after a kinase reaction. The luminescent signal is proportional to the amount of ATP and inversely proportional to the amount of kinase activity. Tyrosine kinase PT66 AlphaScreen Assay is a high-sensitivity homogeneous, anti-phosphotyrosine antibody-mediated luminescent proximity method measuring, incorporation of phosphate in synthetic poly(Glu-Tyr) substrate. The kinase preparations used consist of purified recombinant, 6×His- or GST-tagged kinase domain fragments of the corresponding RTKs expressed in baculovirus system.
(§2) The IGF1R tyrosine kinase is assayed in Kinase-Glo ATP depletion assay using the synthetic polymer poly(Glu-Tyr, 4:1) (Sigma Chemicals) as a phosphoacceptor substrate. Each reaction mixture consists of a total volume of 10 μl and contains 40 ng of the enzyme, 5 μg of poly(Glu-Tyr), 10 μM of ATP and variable concentrations of test compounds. The mixtures also contain 50 mM Tris-HCl, pH 7.5; 5 mM MgCl2; 5 mM MnCl2; 2 mM DTT and 0.01% Tween 20. The reaction mixtures are incubated at 37° C. for 60 minutes and residual concentration of ATP in the mixture is determined by adding luciferase-containing Kinase-Glo (Promega) development reagent and counting luminescence levels using Fusion Universal Microplate Analyzer (PerkinElmer). Tested compounds are dissolved in dimethyl sulfoxide to a stock concentration of 10 mM and are typically evaluated in the assay at eight concentrations in 1 nM to 20 μM range, each in quadruplicate. […] IC50 values are derived by non-linear regression analysis using Prism 3.0 software (Graphpad Software). Other tyrosine kinases are assayed according to the same protocol after titrating amount of the enzyme to provide optimal signal-to-noise ratio and no more than 30% of total ATP consumption in the reaction conditions used.
(§3) The IGF1R tyrosine kinase is assayed in Phosphotyrosine (PT66 or PT 100) AlphaScreen chemiluminescent assay (PerkinElmer) according to the manufacturerer's recommendations. Each kinase reaction mixture consists of a total volume of 15 μl and contains 0.1-1 ng of the enzyme, 7 ng of biotinylated poly(Glu-Tyr) (Cis-Bio), 10 μM of ATP and variable concentrations of test compounds. The mixtures also contain 50 mM Tris-HCl, pH 7.5; 5 mM MgCl2; 5 mM MnCl2; 2 mM DTT and 0.01% Tween 20. The reaction mixtures are incubated at room temperature for 30 minutes. Ten (10) μl of the mixture of […] and donor beads (as supplied by the manufacturer) is then added to the reaction and the incubation is continued for an additional 60 minutes.

Karpas-299 = experiment: Cell proliferation inhibition, Cell Titer-Glo, Karpas-299; assay type: cell-based; settings: Homo sapiens; cell proliferation assay, Karpas-299 cells
Source text: (§4) IGF1R and other tyrosine kinase inhibitors can inhibit the proliferation of certain cancer cell lines indicating their possible therapeutic utility for treating the corresponding cancer types. Cancer cell lines of interest and control normal lines, including CHO, HEK293, BA/F3, COLO205, PC3, DU145, MCF7, Panc1, ACHN, Hep G2, H460, K562, TT, U87-MG, CAOV-3, SK-MEL5, Karpas 299 and human multiple myeloma cell lines H929, MM1s, MM1r, UTMC2, CPM2, KMS11, My5, KMS12PE, My7, JJN3, KMS18, U266, SKMM2, RPMI-8226 are plated in white, clear-bottomed 384-well cell culture plates at 2500-5000 cells per well and supplied with dilutions of tested compounds After a desired period of time (typically 3 days), the number of viable cells is quantitated by using Cell Titer-Glo Luminescent Cell Viability Assay (Promega), a cell proliferation assay system based on detection of total amount of ATP present as a measure of cell metabolic activity. The plated cells are mixed with the Cell Titer-Glo developing reagent and counted in a luminescence multiwell plate reader according to the standard manufacturer's protocol to generate IC50 curves for cell proliferation inhibition. Results are typically reported as percent of growth (% viability =(OD72h(compound)−ODday0))/(OD72h(no compound)−ODday0). Alternatively, viable cells are quantitated by using the conventional colorimetric MTT assay. The MTT assay is based on the cleavage of the yellow tetrazolium salt MTT to purple formazan crystal by metabolic active cells. The formazan is then solubilized, and the concentration determined by optical density at 570 nm. The cells plated and incubated with a compound as described above are supplemented with the solution of MTT and incubated for 2-3 hours. The growth medium is removed and dimethyl sulfoxide is added into each well to dissolve the formazan. The absorbance is measured on an ELISA plate reader with a test wavelength of 570 nm and a background subtraction wavelength of 630 nm to obtain sample signal (OD570-OD630). […] The results are reported in terms of IC50 value for a particular compound and a cell line in the standard 3-day proliferation assay using Cell Titer-Glo. […] The results are reported in terms of IC50 value for a particular compound and a cell line in the standard 3-day proliferation assay using MTT assay.

IGF1R tyrosine kinase = biological target: T2, IGF1R tyrosine kinase (Homo sapiens, UniProt P08069); experiment: IGF1R tyrosine kinase assay (Kinase-Glo ATP depletion or PT66/PT100 AlphaScreen); settings: biochemical tyrosine kinase assay
T2 construct: 6×His- or GST-tagged kinase domain fragments of the corresponding RTKs expressed in baculovirus system; host or cells: baculovirus system
Procedure: as §1, §2, §3

Ba/F3 = experiment: Cell proliferation inhibition, Cell Titer-Glo, Ba/F3; assay type: cell-based; settings: Mus musculus, BaF3; cell proliferation assay, Ba/F3 cells
Source text: as §4

Jak2 = biological target: T3, Jak2 (Homo sapiens, UniProt O60674); experiment: Tyrosine kinase assay (Kinase-Glo or AlphaScreen), Jak2; settings: biochemical tyrosine kinase assay
T3 construct: 6×His- or GST-tagged kinase domain fragments of the corresponding RTKs expressed in baculovirus system; host or cells: baculovirus system
Procedure: as §1, §2, §3

K562 = experiment: Cell proliferation inhibition, Cell Titer-Glo, K562; assay type: cell-based; settings: Homo sapiens; cell proliferation assay, K562 cells
Source text: as §4

Alk = biological target: T4, Alk (Homo sapiens, UniProt Q9UM73); experiment: Tyrosine kinase assay (Kinase-Glo or AlphaScreen), Alk; settings: biochemical tyrosine kinase assay
T4 construct: 6×His- or GST-tagged kinase domain fragments of the corresponding RTKs expressed in baculovirus system; host or cells: baculovirus system
Procedure: as §1, §2, §3

T3 sequence (O60674 849-1124 limits assumed, species assumed): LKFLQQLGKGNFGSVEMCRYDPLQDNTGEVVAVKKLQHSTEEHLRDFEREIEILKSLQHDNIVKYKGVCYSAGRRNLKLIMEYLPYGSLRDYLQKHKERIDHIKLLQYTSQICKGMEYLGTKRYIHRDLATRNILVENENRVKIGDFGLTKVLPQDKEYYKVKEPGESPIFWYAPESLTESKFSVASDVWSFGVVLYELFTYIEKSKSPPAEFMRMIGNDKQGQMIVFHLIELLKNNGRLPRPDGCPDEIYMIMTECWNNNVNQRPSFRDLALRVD
T4 sequence (Q9UM73 1116-1392 limits assumed, species assumed): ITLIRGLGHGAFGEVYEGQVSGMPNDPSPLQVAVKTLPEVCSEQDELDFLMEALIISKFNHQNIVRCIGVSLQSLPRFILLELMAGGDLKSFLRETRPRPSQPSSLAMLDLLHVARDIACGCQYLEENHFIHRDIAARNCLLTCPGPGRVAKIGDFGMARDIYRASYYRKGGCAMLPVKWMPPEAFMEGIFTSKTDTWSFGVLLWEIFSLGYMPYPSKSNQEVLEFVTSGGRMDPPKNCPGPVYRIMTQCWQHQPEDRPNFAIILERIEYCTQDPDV
T2 sequence (P08069 999-1274 limits assumed): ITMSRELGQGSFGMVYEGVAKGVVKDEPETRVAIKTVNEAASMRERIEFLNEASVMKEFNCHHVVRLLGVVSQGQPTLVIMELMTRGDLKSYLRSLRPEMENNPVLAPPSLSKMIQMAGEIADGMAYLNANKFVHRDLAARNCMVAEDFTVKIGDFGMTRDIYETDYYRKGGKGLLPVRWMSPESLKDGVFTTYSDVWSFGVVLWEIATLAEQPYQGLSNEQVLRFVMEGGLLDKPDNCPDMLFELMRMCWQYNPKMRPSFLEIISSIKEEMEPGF
T1 sequence (P06213 1023-1298 limits assumed, species assumed): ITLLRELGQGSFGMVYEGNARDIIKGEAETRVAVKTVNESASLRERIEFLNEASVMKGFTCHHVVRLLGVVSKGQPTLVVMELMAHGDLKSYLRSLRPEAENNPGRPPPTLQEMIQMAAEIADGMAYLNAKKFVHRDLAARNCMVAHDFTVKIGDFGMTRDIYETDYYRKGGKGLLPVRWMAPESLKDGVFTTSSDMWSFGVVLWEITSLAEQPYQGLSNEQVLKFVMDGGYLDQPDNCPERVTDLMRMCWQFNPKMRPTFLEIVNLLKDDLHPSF

| IC50 (InsR) [µM] | IC50 (Karpas-299) [µM] | IC50 (IGF1R tyrosine kinase) [µM] | IC50 (Ba/F3) [µM] | IC50 (Jak2) [µM] | IC50 (K562) [µM] | IC50 (Alk) [µM] | Compound |
| --- | --- | --- | --- | --- | --- | --- | --- |
| 5 to 15 | 0.5 to 5 | < 0.5 | 0.5 to 5 | 5 to 15 | 0.5 to 5 | > 15 | Cc1ccc(OC[C@H](O)CNc2ccnc(O)c2-c2nc3cc4c(cc3[nH]2)C(=O)N([C@H]2CCCN(C)C2)C4=O)c(C)c1 [compound 103] |
| 0.5 to 5 | > 15 | 0.5 to 5 | > 15 | 0.5 to 5 | > 15 | 0.5 to 5 | CN(C)CCc1ncccc1OC[C@H](O)CNc1ccnc(O)c1-c1nc2cc3c(cc2[nH]1)C(=O)N(C1CCN(C)CC1)C3=O [compound 72] |
| < 0.5 | 0.5 to 5 | < 0.5 | 5 to 15 | 0.5 to 5 | > 15 | 0.5 to 5 | COc1ccc(OC[C@H](O)CNc2cc[nH]c(=O)c2-c2nc3c(C)c4c(cc3[nH]2)C(=O)N(C2CCN(C)CC2)C4=O)c(C)c1Cl [compound 138] |
| 0.5 to 5 | 0.5 to 5 | 0.5 to 5 | 0.5 to 5 | 0.5 to 5 | 0.5 to 5 | 0.5 to 5 | Cc1ccc(Cl)cc1OC[C@@H](O)CNc1ccnc(O)c1-c1nc2cc3c(cc2[nH]1)C(=O)N(C1CCN(C)CC1)C3=O [compound 56] |
| > 15 | > 15 | > 15 | > 15 | > 15 | > 15 | 0.5 to 5 | Cc1ccc(OCC(O)CNc2ccnc(O)c2-c2nc3cc4c(cc3[nH]2)C(=O)N(CCCn2cccn2)C4=O)c(C)c1 (stereo not shown) [compound 63] |
| 0.5 to 5 | 0.5 to 5 | 0.5 to 5 | 0.5 to 5 | 0.5 to 5 | 0.5 to 5 | 0.5 to 5 | CN1CCC(N2C(=O)c3cc4nc(-c5c(NC[C@@H](O)COc6cccc(Br)c6)ccnc5O)[nH]c4cc3C2=O)CC1 [compound 76] |
| < 0.5 | > 15 | 0.5 to 5 | > 15 | 5 to 15 | > 15 | 5 to 15 | Cc1ccc(OCC(O)CNc2cc[nH]c(=O)c2-c2nc3cc4c(cc3[nH]2)C(=O)N(C2CCN(C)CC2)C4=O)cc1C (stereo not shown) [compound 104] |
| < 0.5 | > 15 | < 0.5 | > 15 | 0.5 to 5 | > 15 | < 0.5 | CN1CCC(N2C(=O)c3cc4nc(-c5c(NC[C@@H](O)COc6cccc7[nH]ccc67)ccnc5O)[nH]c4cc3C2=O)CC1 [compound 101] |
| 5 to 15 | > 15 | 5 to 15 | > 15 | 0.5 to 5 | > 15 | 0.5 to 5 | CN1CCC(N2C(=O)c3cc4nc(-c5c(NC[C@@H](O)COc6cccc(N7CCOCC7)c6)ccnc5O)[nH]c4cc3C2=O)CC1 [compound 53] |
| 0.5 to 5 | 5 to 15 | 0.5 to 5 | 5 to 15 | 5 to 15 | 5 to 15 | 0.5 to 5 | COc1cc(F)ccc1OC[C@@H](O)CNc1ccnc(O)c1-c1nc2cc3c(cc2[nH]1)C(=O)N(C1CCN(C)CC1)C3=O [compound 58] |
| 0.5 to 5 | 0.5 to 5 | 0.5 to 5 | 5 to 15 | 0.5 to 5 | 5 to 15 | 0.5 to 5 | CN1CCC(N2C(=O)c3cc4nc(-c5c(NC[C@@H](O)Cn6ccc7c(C#N)cccc76)cc[nH]c5=O)[nH]c4cc3C2=O)CC1 [compound 112] |
| 5 to 15 | 5 to 15 | 0.5 to 5 | > 15 | 5 to 15 | 5 to 15 | 0.5 to 5 | Cc1ccc(OC[C@H](O)CNc2cc[nH]c(=O)c2-c2nc3cc4c(cc3[nH]2)C(=O)N(C2CCN(C)CC2)C4=O)c(C(C)(C)C)c1 [compound 80] |
| 5 to 15 | > 15 | 0.5 to 5 | > 15 | 0.5 to 5 | > 15 | 5 to 15 | COc1cc(C#N)ccc1OC[C@H](O)CNc1ccnc(O)c1-c1nc2cc3c(cc2[nH]1)C(=O)N(C1CCN(C)CC1)C3=O [compound 50] |
| 0.5 to 5 | 5 to 15 | 0.5 to 5 | > 15 | 0.5 to 5 | 5 to 15 | < 0.5 | COc1ccc2c(c1)cc(C)n2C[C@H](O)CNc1ccnc(O)c1-c1nc2cc3c(cc2[nH]1)C(=O)N(C1CCN(C)CC1)C3=O [compound 100] |
| 5 to 15 | 5 to 15 | < 0.5 | > 15 | > 15 | > 15 | > 15 | Cc1ccc(OC[C@H](O)CNc2ccnc(O)c2-c2nc3cc4c(cc3[nH]2)C(=O)N([C@@H]2CCCN(C)C2)C4=O)c(C)c1 [compound 102] |
| 0.5 to 5 | 5 to 15 | 0.5 to 5 | 5 to 15 | 0.5 to 5 | 0.5 to 5 | 0.5 to 5 | Cc1ccc(SC[C@H](O)CNc2cc[nH]c(=O)c2-c2nc3cc4c(cc3[nH]2)C(=O)N(C2CCN(C)CC2)C4=O)c(C)c1 [compound 79] |
| 0.5 to 5 | 0.5 to 5 | 0.5 to 5 | 0.5 to 5 | 0.5 to 5 | 0.5 to 5 | 0.5 to 5 | CN1CCC(N2C(=O)c3cc4nc(-c5c(NCC(O)COc6ccc(Cl)cc6)cc[nH]c5=O)[nH]c4cc3C2=O)CC1 (stereo not shown) [compound 39] |
| 0.5 to 5 | > 15 | 0.5 to 5 | > 15 | 0.5 to 5 | > 15 | 5 to 15 | Cc1ccc(OC[C@H](O)CNc2ccnc(O)c2-c2nc3cc4c(cc3[nH]2)C(=O)N(C2CCN(C)CC2)C4=O)cn1 [compound 69] |
| 0.5 to 5 | 0.5 to 5 | 0.5 to 5 | 0.5 to 5 | 0.5 to 5 | 0.5 to 5 | 5 to 15 | CN1CCC(N2C(=O)c3cc4nc(-c5c(NC[C@@H](O)COc6ccc(F)c(Cl)c6)ccnc5O)[nH]c4cc3C2=O)CC1 [compound 74] |

From patent US8063225B2, “Tricyclic compound derivatives useful in the treatment of neoplastic diseases, inflammatory disorders and immunomodulatory disorders” (Chembridge Corporation, priority 2006, dated 2011)
